Patent EP0302824A2 (priority 1987, dated 1989)

Columns and labels:
[1] = tested on: Heliothis virescens larvae; test: Systemic activity of seed applied furathiocarb, larvae caged on maize leaves; type: in vivo
Protocol: This example includes the results of three test series using different maize cultivars F7 x F2, Centaurus and Arjuna. The basic experimental procedure is that used in example 20 therefore only differences are mentioned here.
Seeds of the hybrid F7 x F2 are treated with 10 g/kg furathiocarb in either PVAc/PVAl or association polymer systems. Treatment techniques are described earlier. Seeds are sown in 4 soil types: 100% quartz sand, 98% quartz sand plus 2% peat, 95% quartz sand plus 5% peat and 90% quartz sand plus 10% peat. Soil moisture is maintained at 10% for the 100% and 98% sand mixtures and at 20% for the other two soil types. All percentages are based on dry weight.
Insecticidal activity is tested by caging 5 first instar Heliothis virescens larvae on each leaf of the maize plants. The insects are caged on the leaves at 9 and 14 days after planting and are allowed to feed for 5 and 3 days respectively. The test is evaluated by counting surviving larvae and by visually assessing feeding damage. To achieve this consistently, the leaf is compared to standard diagrams and the percentage eaten is estimated as 0, 1, 2, 5, 10, 20 or 50% or the total area.
Seeds of the hybrid Centaurus are treated with both 4 and 10 g/kg furathiocarb in either PVAc/PVAl or association polymer systems. Seeds are sown in two soil types either earth from Stein, Canton Aargau, Switzerland (exact description given earlier) or in a 98% sand 2% peat mixture. Moisture content is 20% of dry weight for the former and 10% for the latter. H. virescens is again used to test insecticidal activity. The larvae are caged on the leaves either 8 or 14 days after planting and are allowed to feed for 4 days.
Seeds of the cultivar Arjuna are treated with 2.5 and 10 g/kg furathiocarb in either PVAc/PVAl or association polymer systems. Seeds are sown in the two soil types used in the tests of the hybrid Centaurus. H. virescens is again the test insect and the larvae are caged on individual leaves 10 and 14 days after planting; they are allowed to feed for 4 days. Only 10 g rates are tested at the second date.

[2] = Solubilization of furathiocarb in aqueous surfactant solutions, UV spectroscopy; type: physicochemical; settings: for enhancement in the solubility (increase): 1000 ppm
Protocol: This example compares the solubilization of the biocide furathiocarb in a variety of aqueous surfactant solutions (1000 ppm). Experimental Note: 5 µl of furathiocarb (∼ 0.0060-0.0070 g) is pipetted into 10 ml aqueous solutions and stirred overnight. Analysis is performed by UV spectroscopy.

[3] = cultivar Arjuna, 98% Sand, time 1 week, Association Polymer, dosage 2.5 g
[4] = cultivar Arjuna, 98% Sand, time 1 week, Association Polymer, dosage 10 g
[5] = cultivar Arjuna, 98% Sand, time 1 week, PVAc/PVAl, dosage 2.5 g
[6] = cultivar Arjuna, 98% Sand, time 1 week, PVAc/PVAl, dosage 10 g
[7] = cultivar Arjuna, 98% Sand, time 2 weeks, Association Polymer, dosage 10 g
[8] = cultivar Arjuna, 98% Sand, time 2 weeks, PVAc/PVAl, dosage 10 g
[9] = cultivar Arjuna, Stein Earth, time 1 week, Association Polymer, dosage 2.5 g
[10] = cultivar Arjuna, Stein Earth, time 1 week, Association Polymer, dosage 10 g
[11] = cultivar Arjuna, Stein Earth, time 1 week, PVAc/PVAl, dosage 2.5 g
[12] = cultivar Arjuna, Stein Earth, time 1 week, PVAc/PVAl, dosage 10 g
[13] = cultivar Arjuna, Stein Earth, time 2 weeks, Association Polymer, dosage 10 g
[14] = cultivar Arjuna, Stein Earth, time 2 weeks, PVAc/PVAl, dosage 10 g
[15] = hybrid Centaurus, 98% Sand, time 1 week, Association Polymer, dosage 4 g
[16] = hybrid Centaurus, 98% Sand, time 1 week, Association Polymer, dosage 10 g
[17] = hybrid Centaurus, 98% Sand, time 1 week, PVAc/PVAl, dosage 4 g
[18] = hybrid Centaurus, 98% Sand, time 1 week, PVAc/PVAl, dosage 10 g
[19] = hybrid Centaurus, 98% Sand, time 2 weeks, Association Polymer, dosage 4 g
[20] = hybrid Centaurus, 98% Sand, time 2 weeks, Association Polymer, dosage 10 g
[21] = hybrid Centaurus, 98% Sand, time 2 weeks, PVAc/PVAl, dosage 4 g
[22] = hybrid Centaurus, 98% Sand, time 2 weeks, PVAc/PVAl, dosage 10 g
[23] = hybrid Centaurus, Stein Earth, time 1 week, Association Polymer, dosage 4 g
[24] = hybrid Centaurus, Stein Earth, time 1 week, Association Polymer, dosage 10 g
[25] = hybrid Centaurus, Stein Earth, time 1 week, PVAc/PVAl, dosage 4 g
[26] = hybrid Centaurus, Stein Earth, time 1 week, PVAc/PVAl, dosage 10 g
[27] = hybrid Centaurus, Stein Earth, time 2 weeks, Association Polymer, dosage 4 g
[28] = hybrid Centaurus, Stein Earth, time 2 weeks, Association Polymer, dosage 10 g
[29] = hybrid Centaurus, Stein Earth, time 2 weeks, PVAc/PVAl, dosage 4 g
[30] = hybrid Centaurus, Stein Earth, time 2 weeks, PVAc/PVAl, dosage 10 g
[31] = hybrid F7 x F2, 10 g/kg, 90% Sand, time 1 week, Association Polymer
[32] = hybrid F7 x F2, 10 g/kg, 90% Sand, time 1 week, PVAc/PVAl
[33] = hybrid F7 x F2, 10 g/kg, 90% Sand, time 2 weeks, Association Polymer
[34] = hybrid F7 x F2, 10 g/kg, 90% Sand, time 2 weeks, PVAc/PVAl
[35] = hybrid F7 x F2, 10 g/kg, 95% Sand, time 1 week, Association Polymer
[36] = hybrid F7 x F2, 10 g/kg, 95% Sand, time 1 week, PVAc/PVAl
[37] = hybrid F7 x F2, 10 g/kg, 95% Sand, time 2 weeks, Association Polymer
[38] = hybrid F7 x F2, 10 g/kg, 95% Sand, time 2 weeks, PVAc/PVAl
[39] = hybrid F7 x F2, 10 g/kg, 98% Sand, time 1 week, Association Polymer
[40] = hybrid F7 x F2, 10 g/kg, 98% Sand, time 1 week, PVAc/PVAl
[41] = hybrid F7 x F2, 10 g/kg, 98% Sand, time 2 weeks, Association Polymer
[42] = hybrid F7 x F2, 10 g/kg, 98% Sand, time 2 weeks, PVAc/PVAl
[43] = hybrid F7 x F2, 10 g/kg, 100% Sand, time 1 week, Association Polymer
[44] = hybrid F7 x F2, 10 g/kg, 100% Sand, time 1 week, PVAc/PVAl
[45] = hybrid F7 x F2, 10 g/kg, 100% Sand, time 2 weeks, Association Polymer
[46] = hybrid F7 x F2, 10 g/kg, 100% Sand, time 2 weeks, PVAc/PVAl

## CCCCOC(=O)N(C)SN(C)C(=O)Oc1cccc2c1OC(C)(C)C2 [furathiocarb]
[1]; [3]
  Percent survival of H. virescens larvae: 4%
  Scores of damage caused by H. virescens larvae: 2.1
[1]; [4]
  Percent survival of H. virescens larvae: 6%
  Scores of damage caused by H. virescens larvae: 2.5
[1]; [5]
  Percent survival of H. virescens larvae: 50%
  Scores of damage caused by H. virescens larvae: 4.9
[1]; [6]
  Percent survival of H. virescens larvae: 28%
  Scores of damage caused by H. virescens larvae: 3.4
[1]; [7]
  Percent survival of H. virescens larvae: 8%
  Scores of damage caused by H. virescens larvae: 2.7
[1]; [8]
  Percent survival of H. virescens larvae: 37%
  Scores of damage caused by H. virescens larvae: 4.7
[1]; [9]
  Percent survival of H. virescens larvae: 30%
  Scores of damage caused by H. virescens larvae: 3.3
[1]; [10]
  Percent survival of H. virescens larvae: 2%
  Scores of damage caused by H. virescens larvae: 1.8
[1]; [11]
  Percent survival of H. virescens larvae: 22%
  Scores of damage caused by H. virescens larvae: 3.3
[1]; [12]
  Percent survival of H. virescens larvae: 8%
  Scores of damage caused by H. virescens larvae: 2.1
[1]; [13]
  Percent survival of H. virescens larvae: 9%
  Scores of damage caused by H. virescens larvae: 2.7
[1]; [14]
  Percent survival of H. virescens larvae: 21%
  Scores of damage caused by H. virescens larvae: 3.5
[1]; [15]
  Percent survival of H. virescens larvae: 2%
  Scores of damage caused by H. virescens larvae: 1.5
[1]; [16]
  Percent survival of H. virescens larvae: 0%
  Scores of damage caused by H. virescens larvae: 1.3
[1]; [17]
  Percent survival of H. virescens larvae: 8%
  Scores of damage caused by H. virescens larvae: 1.9
[1]; [18]
  Percent survival of H. virescens larvae: 12%
  Scores of damage caused by H. virescens larvae: 2.0
[1]; [19]
  Percent survival of H. virescens larvae: 31%
  Scores of damage caused by H. virescens larvae: 4.1
[1]; [20]
  Percent survival of H. virescens larvae: 13%
  Scores of damage caused by H. virescens larvae: 2.8
[1]; [21]
  Percent survival of H. virescens larvae: 46%
  Scores of damage caused by H. virescens larvae: 5.5
[1]; [22]
  Percent survival of H. virescens larvae: 51%
  Scores of damage caused by H. virescens larvae: 5.8
[1]; [23]
  Percent survival of H. virescens larvae: 7%
  Scores of damage caused by H. virescens larvae: 1.9
[1]; [24]
  Percent survival of H. virescens larvae: 10%
  Scores of damage caused by H. virescens larvae: 2.0
[1]; [25]
  Percent survival of H. virescens larvae: 25%
  Scores of damage caused by H. virescens larvae: 2.8
[1]; [26]
  Percent survival of H. virescens larvae: 10%
  Scores of damage caused by H. virescens larvae: 2.0
[1]; [27]
  Percent survival of H. virescens larvae: 49%
  Scores of damage caused by H. virescens larvae: 4.4
[1]; [28]
  Percent survival of H. virescens larvae: 22%
  Scores of damage caused by H. virescens larvae: 3.0
[1]; [29]
  Percent survival of H. virescens larvae: 32%
  Scores of damage caused by H. virescens larvae: 3.9
[1]; [30]
  Percent survival of H. virescens larvae: 27%
  Scores of damage caused by H. virescens larvae: 3.4
[1]; [31]
  Percent survival of H. virescens larvae: 34%
  Scores of damage caused by H. virescens larvae: 4.9
[1]; [32]
  Percent survival of H. virescens larvae: 48%
  Scores of damage caused by H. virescens larvae: 6.0
[1]; [33]
  Percent survival of H. virescens larvae: 42%
  Scores of damage caused by H. virescens larvae: 4.2
[1]; [34]
  Percent survival of H. virescens larvae: 61%
  Scores of damage caused by H. virescens larvae: 4.9
[1]; [35]
  Percent survival of H. virescens larvae: 16%
  Scores of damage caused by H. virescens larvae: 3.2
[1]; [36]
  Percent survival of H. virescens larvae: 48%
  Scores of damage caused by H. virescens larvae: 6.4
[1]; [37]
  Percent survival of H. virescens larvae: 50%
  Scores of damage caused by H. virescens larvae: 4.4
[1]; [38]
  Percent survival of H. virescens larvae: 64%
  Scores of damage caused by H. virescens larvae: 4.8
[1]; [39]
  Percent survival of H. virescens larvae: 16%
  Scores of damage caused by H. virescens larvae: 4.2
[1]; [40]
  Percent survival of H. virescens larvae: 36%
  Scores of damage caused by H. virescens larvae: 6.5
[1]; [41]
  Percent survival of H. virescens larvae: 37%
  Scores of damage caused by H. virescens larvae: 3.7
[1]; [42]
  Percent survival of H. virescens larvae: 75%
  Scores of damage caused by H. virescens larvae: 5.2
[1]; [43]
  Percent survival of H. virescens larvae: 18%
  Scores of damage caused by H. virescens larvae: 3.5
[1]; [44]
  Percent survival of H. virescens larvae: 40%
  Scores of damage caused by H. virescens larvae: 5.1
[1]; [45]
  Percent survival of H. virescens larvae: 45%
  Scores of damage caused by H. virescens larvae: 4.0
[1]; [46]
  Percent survival of H. virescens larvae: 42%
  Scores of damage caused by H. virescens larvae: 3.6
[2]; 1000 ppm Alipal CO-433
  Solubility of Furathiocarb, ppm: 25 ppm
[2]; 1000 ppm Alipal EP110
  Solubility of Furathiocarb, ppm: 16 ppm
[2]; 1000 ppm Ethomeen T/15
  Solubility of Furathiocarb, ppm: 89 ppm
[2]; 1000 ppm Pluronic F68
  Solubility of Furathiocarb, ppm: 15 ppm
[2]; 1000 ppm Triton N101
  Solubility of Furathiocarb, ppm: 220 ppm
[2]; Ethomeen T/15 solution
  enhancement in the solubility (increase): 5 fold
[2]; H₂O
  Solubility of Furathiocarb, ppm: 15 ppm
[2]; Triton N101 solution
  enhancement in the solubility (increase): 14 fold
